Like-named read-outs stand apart in the source and are kept apart here.
How the values were obtained:
Test in all cases: Further analysis of a plurality of inhibitors and a plurality of kinases (Table 5 inhibition results)
Format in all cases: biochemical
Parameters in all cases: scale not given here
[1] = target: T1, kinases of Table 5 (Homo sapiens, UniProt Q92630); conditions: for Inhibition level: kinase DYRK2; for Inhibition Results (Level): kinase DYRK2 (Part II, plate D11, Domain 1)
T1 sequence (Q92630 1-601): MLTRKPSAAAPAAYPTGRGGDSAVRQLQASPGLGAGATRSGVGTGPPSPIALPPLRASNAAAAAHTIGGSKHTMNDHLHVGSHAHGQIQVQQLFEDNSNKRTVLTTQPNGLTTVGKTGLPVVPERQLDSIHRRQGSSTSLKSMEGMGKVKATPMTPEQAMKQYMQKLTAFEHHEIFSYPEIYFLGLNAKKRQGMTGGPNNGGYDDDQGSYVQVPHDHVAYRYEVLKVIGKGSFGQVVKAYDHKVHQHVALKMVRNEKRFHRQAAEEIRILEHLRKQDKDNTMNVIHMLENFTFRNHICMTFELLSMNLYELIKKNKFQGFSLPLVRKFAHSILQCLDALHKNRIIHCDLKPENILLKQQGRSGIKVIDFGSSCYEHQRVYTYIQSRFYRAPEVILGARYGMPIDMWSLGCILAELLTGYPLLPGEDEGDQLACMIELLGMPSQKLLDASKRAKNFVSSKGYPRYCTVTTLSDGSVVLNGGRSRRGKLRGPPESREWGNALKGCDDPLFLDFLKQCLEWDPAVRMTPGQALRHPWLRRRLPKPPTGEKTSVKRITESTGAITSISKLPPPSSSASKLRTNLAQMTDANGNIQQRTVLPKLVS
Excerpt: (§1) The wash solution is then discarded.

[2] = target: T2, kinases of Table 5 (Homo sapiens, UniProt Q12866); conditions: inhibitor 100 uM; for Inhibition level: kinase MERTK; for Inhibition Results (Level): kinase MERTK (Part II, plate B11, Domain 1)
T2 sequence (Q12866 21-999): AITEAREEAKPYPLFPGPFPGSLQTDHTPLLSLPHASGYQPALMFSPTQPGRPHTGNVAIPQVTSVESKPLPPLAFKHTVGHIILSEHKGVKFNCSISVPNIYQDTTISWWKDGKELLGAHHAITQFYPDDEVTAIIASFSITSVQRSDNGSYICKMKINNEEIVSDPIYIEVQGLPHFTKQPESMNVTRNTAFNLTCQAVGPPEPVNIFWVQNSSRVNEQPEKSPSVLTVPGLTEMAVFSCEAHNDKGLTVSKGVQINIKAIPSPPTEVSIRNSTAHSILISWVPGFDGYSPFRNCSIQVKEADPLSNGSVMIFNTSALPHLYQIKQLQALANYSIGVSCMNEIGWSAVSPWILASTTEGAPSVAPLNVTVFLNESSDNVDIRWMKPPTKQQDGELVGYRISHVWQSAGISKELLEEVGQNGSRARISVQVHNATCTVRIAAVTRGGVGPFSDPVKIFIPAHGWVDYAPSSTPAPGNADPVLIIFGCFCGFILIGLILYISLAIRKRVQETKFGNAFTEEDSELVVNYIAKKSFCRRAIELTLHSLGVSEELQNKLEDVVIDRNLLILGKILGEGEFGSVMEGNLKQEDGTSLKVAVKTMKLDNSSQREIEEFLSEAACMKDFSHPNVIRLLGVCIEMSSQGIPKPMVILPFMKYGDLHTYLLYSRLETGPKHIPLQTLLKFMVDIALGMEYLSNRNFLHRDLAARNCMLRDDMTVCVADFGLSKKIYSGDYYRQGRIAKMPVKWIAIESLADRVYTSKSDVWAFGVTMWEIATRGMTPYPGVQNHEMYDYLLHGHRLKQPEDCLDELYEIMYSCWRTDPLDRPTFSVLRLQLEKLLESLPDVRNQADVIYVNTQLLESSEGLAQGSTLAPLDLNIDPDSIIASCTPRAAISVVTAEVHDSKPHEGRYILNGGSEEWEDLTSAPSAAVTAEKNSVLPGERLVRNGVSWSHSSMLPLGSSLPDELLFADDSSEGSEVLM
Excerpt: as §1

[3] = target: kinases of Table 5 (Homo sapiens, UniProt Q9Y6E0); conditions: inhibitor 100 uM; for Inhibition level: kinase STK24; for Inhibition Results (Level): kinase STK24 (Part II, plate F11, Domain 0)
Chain of kinases of Table 5 (Homo sapiens, UniProt Q9Y6E0) (Q9Y6E0 whole entry): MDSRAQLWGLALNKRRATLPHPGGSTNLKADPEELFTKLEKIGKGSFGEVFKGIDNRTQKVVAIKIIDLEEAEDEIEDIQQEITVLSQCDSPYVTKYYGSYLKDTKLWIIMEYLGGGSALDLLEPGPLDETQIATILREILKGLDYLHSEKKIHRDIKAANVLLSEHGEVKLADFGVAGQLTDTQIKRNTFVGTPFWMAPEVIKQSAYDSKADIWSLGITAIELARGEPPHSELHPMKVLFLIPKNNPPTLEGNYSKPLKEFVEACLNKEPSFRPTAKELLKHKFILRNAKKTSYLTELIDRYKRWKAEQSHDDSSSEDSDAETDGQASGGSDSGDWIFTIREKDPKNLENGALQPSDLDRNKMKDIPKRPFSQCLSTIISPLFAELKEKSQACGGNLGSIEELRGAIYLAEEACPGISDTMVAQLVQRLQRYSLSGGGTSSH
Excerpt: as §1

[4] = target: kinases of Table 5 (Homo sapiens, UniProt P06241)
Chain of kinases of Table 5 (Homo sapiens, UniProt P06241) (P06241 whole entry): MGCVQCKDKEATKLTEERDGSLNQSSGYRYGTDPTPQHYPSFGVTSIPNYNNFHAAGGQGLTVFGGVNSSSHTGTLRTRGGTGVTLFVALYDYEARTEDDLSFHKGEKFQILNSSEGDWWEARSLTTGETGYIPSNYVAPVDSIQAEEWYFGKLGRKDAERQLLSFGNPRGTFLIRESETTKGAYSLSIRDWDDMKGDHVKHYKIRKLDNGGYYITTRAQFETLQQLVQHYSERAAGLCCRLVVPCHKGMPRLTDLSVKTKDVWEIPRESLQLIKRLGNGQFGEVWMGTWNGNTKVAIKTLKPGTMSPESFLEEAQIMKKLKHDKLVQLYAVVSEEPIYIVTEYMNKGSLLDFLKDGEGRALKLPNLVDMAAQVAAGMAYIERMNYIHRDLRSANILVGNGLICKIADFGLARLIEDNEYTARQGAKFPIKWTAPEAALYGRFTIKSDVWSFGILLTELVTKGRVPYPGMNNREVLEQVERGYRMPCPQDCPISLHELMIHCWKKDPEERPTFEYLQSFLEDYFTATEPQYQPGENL
Excerpt: as §1

[5] = target: T3, kinases of Table 5 (Homo sapiens, UniProt Q9UQB9); conditions: kinase STK13 (Part I, plate G11, Domain 1); inhibitor 100 uM
T3 sequence (Q9UQB9 1-309): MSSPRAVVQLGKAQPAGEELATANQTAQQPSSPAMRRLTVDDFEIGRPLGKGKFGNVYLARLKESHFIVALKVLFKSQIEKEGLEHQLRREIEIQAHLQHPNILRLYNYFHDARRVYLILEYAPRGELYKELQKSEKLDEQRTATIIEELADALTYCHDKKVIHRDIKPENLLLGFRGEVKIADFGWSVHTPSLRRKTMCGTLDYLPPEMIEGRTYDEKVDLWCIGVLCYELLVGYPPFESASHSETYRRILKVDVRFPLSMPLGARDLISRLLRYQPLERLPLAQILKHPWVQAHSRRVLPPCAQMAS
Excerpt: as §1

[6] = target: T4, kinases of Table 5 (Homo sapiens, UniProt Q8IV63); conditions: kinase LOC51231 (Part I, plate C12, Domain 1)
T4 sequence (Q8IV63 1-474): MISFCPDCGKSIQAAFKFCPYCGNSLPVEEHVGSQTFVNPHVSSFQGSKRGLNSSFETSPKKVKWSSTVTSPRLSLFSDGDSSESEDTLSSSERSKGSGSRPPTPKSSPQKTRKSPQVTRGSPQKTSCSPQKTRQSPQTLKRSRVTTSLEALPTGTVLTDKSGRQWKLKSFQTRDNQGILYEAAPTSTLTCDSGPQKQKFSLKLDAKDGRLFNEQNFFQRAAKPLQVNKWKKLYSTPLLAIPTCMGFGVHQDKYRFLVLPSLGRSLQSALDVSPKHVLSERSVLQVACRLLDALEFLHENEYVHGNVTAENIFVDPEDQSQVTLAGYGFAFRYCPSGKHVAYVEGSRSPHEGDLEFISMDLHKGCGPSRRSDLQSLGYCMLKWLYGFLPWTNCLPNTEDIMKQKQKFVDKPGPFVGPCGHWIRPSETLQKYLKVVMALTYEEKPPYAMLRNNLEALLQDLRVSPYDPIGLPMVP
Excerpt: as §1

[7] = target: kinases of Table 5 (Homo sapiens, UniProt Q13557)
Chain of kinases of Table 5 (Homo sapiens, UniProt Q13557) (Q13557 whole entry): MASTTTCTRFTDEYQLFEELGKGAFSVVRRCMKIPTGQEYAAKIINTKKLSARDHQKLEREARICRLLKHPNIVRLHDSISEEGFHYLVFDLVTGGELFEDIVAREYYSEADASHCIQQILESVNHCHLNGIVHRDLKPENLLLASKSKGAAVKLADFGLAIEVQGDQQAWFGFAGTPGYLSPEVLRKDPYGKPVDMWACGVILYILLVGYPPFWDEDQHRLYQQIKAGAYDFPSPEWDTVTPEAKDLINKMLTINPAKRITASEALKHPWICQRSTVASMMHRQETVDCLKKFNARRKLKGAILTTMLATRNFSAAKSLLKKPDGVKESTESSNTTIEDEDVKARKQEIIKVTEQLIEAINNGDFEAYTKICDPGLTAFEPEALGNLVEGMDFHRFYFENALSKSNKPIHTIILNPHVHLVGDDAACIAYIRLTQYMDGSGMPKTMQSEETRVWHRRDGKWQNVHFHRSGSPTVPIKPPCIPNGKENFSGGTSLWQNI
Excerpt: as §1

[8] = kinase FYN (Part I, plate A4, Domain 0), inhibitor 100 uM
[9] = kinase CAMK2D, inhibitor 100 uM
[10] = kinase CAMK2D, concentration not given

| Compound | Inhibition level ([1]; inhibitor 100 uM) | Inhibition level [2] | Inhibition level [3] | Inhibition Results (Level) [4, 8] | Inhibition Results (Level) [5] | Inhibition Results (Level) ([6]; inhibitor 100 uM) | Inhibition level [7, 9] | Inhibition level ([1]; concentration not given) | Inhibition Results (Level) ([4]; kinase FYN (Part I, plate A4, Domain 0), inhibitor <3.7 mM) | Inhibition Results (Level) ([6]; inhibitor <3.7 mM) | Inhibition level [7, 10] | Inhibition Results (Level) ([1]; inhibitor 100 uM) | Inhibition Results (Level) [2] | Inhibition Results (Level) [3] | Inhibition Results (Level) ([4]; kinase FYN (Part I, plate A4, Domain 0), inhibitor 90 uM) | Inhibition Results (Level) ([6]; inhibitor 90 uM) | Inhibition Results (Level) [4] | Inhibition Results (Level) ([6]; inhibitor 21.5 uM) | Inhibition level [7] |
| --- | --- | --- | --- | --- | --- | --- | --- | --- | --- | --- | --- | --- | --- | --- | --- | --- | --- | --- | --- |
| N#C/C(=C/c1ccc(O)c(O)c1)C(=O)NCc1ccccc1 [AG 490] | 2 | 2 | 2 | 2 | 2 | 0 | 2 |  |  |  |  |  |  |  |  |  |  |  |  |
| COc1cc2ncnc(Nc3cccc(Cl)c3)c2cc1OC [AG 1478] | 2 | 2 | 1 | 2 | 1 | 0 | 2 |  |  |  |  |  |  |  |  |  |  |  |  |
| O=c1c(-c2ccc(O)cc2)coc2cc(O)cc(O)c12 [Genistein] | 2 | 2 | 2 | 2 | 2 | 2 | 2 | 1 | 1 | 0 | 0 |  |  |  |  |  |  |  |  |
| O=S(=O)(NCCNC/C=C/c1ccc(Br)cc1)c1cccc2cnccc12 [H-89] |  |  |  | 2 | 1 | 2 | 0 |  |  |  |  | 2 | 2 | 2 |  |  |  |  |  |
| CC(C)(C)n1nc(-c2ccc(Cl)cc2)c2c(N)ncnc21 [PP2] | 2 | 2 | 2 |  | 2 | 0 | 2 |  |  |  |  |  |  |  |  |  |  |  |  |
| O=c1c(O)c(-c2ccc(O)c(O)c2)oc2cc(O)cc(O)c12 [Quercetin] |  |  |  |  | 2 | 0 |  |  |  |  |  | 2 | 1 |  |  |  |  |  |  |
| Cn1cc(C2=C(c3cn(CCCSC(=N)N)c4ccccc34)C(=O)NC2=O)c2ccccc21 [Ro-31-8220] | 2 | 2 | 2 | 2 | 2 | 2 | 0 | 0 |  |  | 2 |  |  |  | 0 | 0 |  |  |  |
| CC(=O)c1c(O)c(C)c(O)c(Cc2c(O)c3c(c(C(=O)/C=C/c4ccccc4)c2O)OC(C)(C)C=C3)c1O [Rottlerin (Mallotoxin)] |  |  |  | 2 | 1 | 0 | 2 |  |  |  |  | 2 | 2 | 1 |  |  |  |  |  |
| CN[C@@H]1C[C@H]2O[C@@](C)([C@@H]1OC)n1c3ccccc3c3c4c(c5c6ccccc6n2c5c31)C(=O)NC4 [Staurosporine] |  |  |  |  |  |  |  |  |  |  |  |  |  |  |  |  | 2 | 0 | 2 |

— patent US20090099029A1, “Methods and substrates for conducting assays” (Invitrogen Corporation, priority 2005, published 2009)
